Read-outs that look alike come from different tables or passages of the source.
Tests used:
[1] = test system: BNIP3 gene expression; assay: BNIP3 gene expression in Hep3B cells (Affymetrix microarray); assay type: cell-based, human; conditions: 25 μM, vs DMSO control
Experimental: (§1) To identify compounds useful in the methods of the present invention, the following studies were performed. The effect of compounds of the present invention on expression of various genes associated with anti-tumor activity (e.g., genes having anti-proliferative activity, genes having pro-apoptotic activity, genes having anti-tumor activity, etc.). In these experiments, the effect of compounds on BNIP3, BNIP3L, NDRG1, CDKN1C, and REDD1/RTP801 gene expression in various types of cultured tumor cells line was examined, including Hep3B cells (human hepatocellular carcinoma), Kelly neuroblastoma cells, and MCF7 cells (human breast cancer)
(§2) The effects of various compounds of the present invention on the expression of genes associated with tumor growth and progression were examined in Hep3B cells as follows. Hep3B cells (ATCC) were cultured in DMEM containing 8% fetal bovine serum (FBS) and antibiotics. For each experiment, Hep3 cells were added to 6-well tissue culture dishes (approximately 500,000 cells per well). After 8 hours, the media was replaced with DMEM containing 0.5% FBS. Sixteen hours later, various compounds of the present invention were added to the cultured cells to a final concentration of 25 μM. The cells were then harvested and added to RNA extraction buffer (RNeasy, Qiagen). RNA was isolated from cell lysates using RNeasy Mini spin columns (Qiagen) according to the manufacturer's instructions. Changes in expression of various gene transcript levels associated with tumor growth and progression were determined by Affymetrix microarray. Labeled probes were prepared and hybridized to U133A Affyrnetrix microarrays.
(§3) Changes in gene expression levels in vitro following compound addition are presented as fold change relative to gene expression levels observed in control cells treated with DMSO only. Data represents the average of two independent studies.

[2] = test system: BNIP3L gene expression; assay: BNIP3L gene expression in Hep3B cells (Affymetrix microarray); assay type: cell-based, human; conditions: 25 μM, vs DMSO control
Experimental: as §1, §2, §3

[3] = test system: NDRG1 gene expression; assay: NDRG1 gene expression in Hep3B cells (Affymetrix microarray); assay type: cell-based, human; conditions: 25 μM, vs DMSO control
Experimental: as §1, §2, §3

[4] = test system: REDD1/RTP801 gene expression; assay: REDD1/RTP801 gene expression in Hep3B cells (Affymetrix microarray); assay type: cell-based, human; conditions: 25 μM, vs DMSO control
Experimental: as §1, §2, §3

[5] = test system: BNIP3 gene expression; assay: In vivo BNIP3 gene expression in Swiss Webster mice (quantitative PCR); conditions: Mus musculus, iv, 4 h, single 60 mg/kg i.v. dose, four hours after administration, normalized to 18S, read-out: fold change in BNIP3 mRNA level
Experimental: (§4) The effects of various compounds of the present invention on the expression of genes associated with tumor growth and progression (e.g., expression of genes associated with anti-proliferative effects) were examined in vivo as follows. In these studies, male Swiss Webster mice (25 g) were administered a single intravenous (i.v.) dose of various compounds (60 mg/kg) of the present invention via the tail vein. Four hours after administration of compound, the kidneys and liver were removed and preserved in RNAlater (Ambion). RNA isolation and cDNA synthesis was carried out as follows. Murine kidney tissue was added to TRIzol (Invitrogen) and homogenized using a 5-mm stainless steel bead for 4 minutes at 25 Hz in a Mixer Mill 300 (Qiagen). Homogenates were extracted with chloroform according to the manufacturer's instructions and aqueous supernatants were isolated. The aqueous supernatants were combined with equal volumes of 70% ethanol and then loaded onto RNeasy Mini spin columns (Qiagen). RNA was isolated according to the manufacturer's instructions.
(§5) Synthesis of cDNA from the isolated total RNA was carried out using Omniscript reverse transcriptase (Qiagen) and random primers according to the manufacturer's instructions. Measurement of gene expression levels in compound-treated animals and in vehicle-treated control animals was performed by quantitative PCR using TaqMan Universal PCR Master Mix (Applied Biosystems) and TaqMan Assay-on-Demand assays (Applied Biosystems) in a Prism 7000 system instrument (Applied Biosystems), according to manufacturer's instructions. The assays used were as follows: 18S ribosomal RNA, Hs99999901_s1; BNIP3, Mm00833810_g1; BNIP3L, Mm00786306_s1; NDRG1, Mm00440447_m1. Each PCR amplification reaction included a standard curve and a water blank. Data for gene expression levels for BNIP3, BNIP3L, and NDRG1 were normalized to that of 18S ribosomal RNA within each sample. Data is presented as fold change in specific mRNA levels relative to that of non-treated control animals.

[6] = test system: BNIP3L gene expression; assay: In vivo BNIP3L gene expression in Swiss Webster mice (quantitative PCR); conditions: Mus musculus, iv, 4 h, single 60 mg/kg i.v. dose, four hours after administration, normalized to 18S, read-out: fold change in BNIP3L mRNA level
Experimental: as §4, §5

[7] = test system: BNIP3 gene expression; assay: BNIP3 gene expression in MCF7 cells; assay type: cell-based; conditions: Homo sapiens; MCF7 cells; 20 μM; 20-24 hours; vs 0.5% DMSO control; read-out: fold-increase in BNIP3 mRNA expression
Experimental: as §1
(§6) The effects of various compounds of the present invention on the expression of genes associated with tumor growth and progression were examined in MCF7 breast cancer cells as follows. In some experiments, MCF7 (ATCC) cells were plated in 96-well tissue culture dishes (approximately 20,000 cells per well) and cultured in DMEM media supplemented with 10% serum. The following day, the cells were washed and the media was replaced with DMEM containing 0.5% FBS. Various compounds of the present invention were added to the cultured cells to a final concentration of 20 μM, and the cells cultured for an additional 20-24 hours. DMSO (0.5%) was added to control cell cultures. RNA was isolated as described above. Changes in gene expression levels are presented as fold change compared to that of control (0.5% DMSO-treated) cultures.
In other experiments, MCF7 cells were plated in 96-well tissue culture dishes as described above. After 24 hours, the cells were washed and the media was replaced with DMEM containing 0.5% FBS. Various compounds of the present invention were added to the cultured cells to a final concentration of 20 μM. DMSO (0.5%) was added to control cell cultures. After 24 hours, changes in gene expression of BNIP3 and 18S RNA were determined directly using one-step quantitative multiplex RT-PCR reactions according to the manufacturer's instructions (QuantiTect Multiplex RT-PCR Kit, Qiagen, catalog no. 204643). Changes in gene expression levels are presented as fold change compared to that of control (0.5% DMSO-treated) cultures.

[8] = test system: BNIP3 gene expression; assay: BNIP3 gene expression in Kelly neuroblastoma cells; assay type: cell-based; conditions: Kelly cells; 20 μM; 20-24 hours; normalized to 18S RNA; vs DMSO control; read-out: fold-increase in BNIP3 mRNA expression
Experimental: as §1
(§7) The effects of various compounds of the present invention on the expression of genes associated with tumor growth and progression were examined in Kelly neuroblastoma cells as follows. Kelly neuroblastoma cells were grown in RPMI media. For each experiment, Kelly neuroblastoma cells were added to 96-well tissue culture plates (approximately 40,000 cells per well) such that the plated cells reached confluence the following day. On the following day, the cells were washed and the media replaced with RPMI containing 0.5% FBS. Various compounds of the present invention were added to the cultured cells to a final concentration of 20 μM, and the cells cultured for an additional 20-24 hours. DMSO (0.5%) was added to control cell cultures.
(§8) RNA was isolated from the Kelly neuroblastoma cells using a commercial kit and used for the preparation of cDNA. BNIP3, CDKN1C, and 18S RNA levels were measured using commercial kits (18S, Applied Biosystems cat#4319413E); BNIP3, Applied Biosystems cat#HS00969293 MH). RNA levels for BNIP3 and CDKN1C were normalized to that of 18S RNA and is presented as fold-change compared to that observed in DMSO control cultures. Kelly cell NDRG1 and BNIP3L mRNA levels were measured by Affymetrix microarray in a separate study. Cells were harvested after 6 hours incubation with 20 μM test compound or DMSO (0.5%) as control. RNA was isolated and labeled probes were prepared and hybridized to U133 Plus 2.0 Affymetrix microarrays. Changes in gene expression levels are presented as fold change compared to that of control (0.5% DMSO-treated) cultures.

[9] = test system: CDKN1C gene expression; assay: CDKN1C gene expression in MCF7 cells; assay type: cell-based; conditions: Homo sapiens; MCF7 cells; 20 μM; 20-24 hours; vs 0.5% DMSO control; read-out: fold-increase in CDKN1C mRNA expression
Experimental: as §1, §6

[10] = test system: CDKN1C gene expression; assay: CDKN1C gene expression in Kelly neuroblastoma cells; assay type: cell-based; conditions: Kelly cells; 20 μM; 20-24 hours; normalized to 18S RNA; vs DMSO control; read-out: fold-increase in CDKN1C mRNA expression
Experimental: as §1, §7, §8

[11] = test system: NDRG1 gene expression; assay: In vivo NDRG1 gene expression in Swiss Webster mice (quantitative PCR); conditions: Mus musculus, iv, 4 h; kidney; single 60 mg/kg i.v. dose; four hours after administration; normalized to 18S; read-out: fold change in NDRG1 mRNA level
Experimental: as §4, §5

SMILES | fold-increase in BNIP3 mRNA expression [1] [fold] | fold-increase in BNIP3L mRNA expression [2] [fold] | fold-increase in NDRG1 mRNA expression [3] [fold] | fold-increase in REDD1/RTP801 mRNA expression [4] [fold] | fold induction at 60 mg/kg ([5]; liver) | fold induction at 60 mg/kg ([6]; liver) | fold induction at 20 µM [7] | fold induction at 20 µM [8] | fold induction at 20 µM [9] | fold induction at 20 µM [10] | fold induction at 60 mg/kg ([5]; kidney) | fold induction at 60 mg/kg ([6]; kidney) | fold induction at 60 mg/kg [11]
O=C(O)c1c[nH]c2c(ccc3cccnc32)c1=O [Compound F, 4-Oxo-1,4-dihydro-[1,10]phenanthroline-3-carboxylic acid] | 3.5 | 3.2 | 5.4 | 6.3 | 1.1 | 1.3 | – | – | – | – | – | – | –
COc1ccc(CCN(CCC(=O)NO)S(=O)(=O)c2ccc(NC(=O)N(Cc3ccccc3)Cc3ccccc3)cc2)cc1 [Compound G, 3-{[4-(3,3-Dibenzyl-ureido)-benzenesulfonyl]-[2-(4-methoxy-phenyl)-ethyl]-amino}-N-hydroxy-propionamide] | 4.2 | 4.3 | 6.8 | 14.1 | – | – | – | – | – | – | – | – | –
O=C(O)CNC(=O)c1nc2cc(Cl)ccc2cc1O [Compound H, [(7-Chloro-3-hydroxy-quinoline-2-carbonyl)-amino]-acetic acid] | 2.0 | 1.5 | 2.4 | 2.4 | – | – | 3.2 | 5.9 | 0.7 | 11.6 | – | – | –
COc1ccc2c(O)c(C(=O)NCC(=O)O)nc(Cl)c2c1 [Compound I, [(1-Chloro-4-hydroxy-7-methoxy-isoquinoline-3-carbonyl)-amino]-acetic acid] | 2.1 | 1.7 | 3.3 | 3.8 | – | – | – | – | – | – | – | – | –
O=C(O)CNC(=O)c1ncc2cc(Cl)c(Cl)cc2c1O [Compound J, [(6,7-Dichloro-4-hydroxy-isoquinoline-3-carbonyl)-amino]-acetic acid] | – | – | – | – | – | – | 3.3 | 8.9 | 0.8 | 6.9 | 2 | 1.3 | 1.7
O=C(O)CNC(=O)c1ncc2cc(Oc3ccccc3)ccc2c1O [Compound K, [(4-Hydroxy-7-phenoxy-isoquinoline-3-carbonyl)-amino]-acetic acid] | 3.0 | 2.2 | 3.3 | 4.8 | – | – | 7.7 | – | – | – | – | – | –
C[C@H](NC(=O)c1ncc2cc(Sc3ccccc3)ccc2c1O)C(=O)O [Compound L, (S)-2-[(4-Hydroxy-7-phenylsulfanyl-isoquinoline-3-carbonyl)-amino]-propionic acid] | – | – | – | – | – | – | 4.8 | 32.8 | 0.2 | 120 | 2.8 | 3.4 | 1
O=C(O)CNC(=O)c1nc(Oc2ccccc2)c2cc(Oc3ccccc3)ccc2c1O [Compound M, [(4-Hydroxy-1,7-diphenoxy-isoquinoline-3-carbonyl)-amino]-acetic acid] | – | – | – | – | – | – | 0.4 | 27.6 | 2.1 | 3.4 | – | – | –
O=C(O)CNC(=O)c1ncc2cc(Sc3ccccc3)ccc2c1O [Compound N, [(4-hydroxy-7-phenylsulfanyl-isoquinoline-3-carbonyl)-amino]-acetic acid] | 3.6 | 2.8 | 3.7 | 5.7 | – | – | 4.9 | 27.1 | 0.4 | 183 | 3.1 | 3.4 | 1.2

Source: US8530404B2, “Compounds and methods for treatment of cancer” (FibroGen, Inc., priority 2005, dated 2013)
